How the values were obtained:
Plasmodium falciparum [1] = experiment: Antiplasmodial activity against […] Plasmodium falciparum NF54 assessed as parasite growth inhibition at 5 uM incubated for 48 hrs by luciferase based analysis relative to control; format: functional
Plasmodium berghei [2] = experiment: Antiplasmodial activity against […] Plasmodium berghei infected in mouse model assessed as parasite growth inhibition at 10 uM pre-infected mouse with parasite followed by blood collection from mouse and subsequent addition of compound in blood measured after 24 hrs by nano-luciferase based analysis relative to control; format: functional; details: read-out: INH
Plasmodium falciparum [3] = experiment: Antiplasmodial activity against asexual blood-stage CQ-sensitive Plasmodium falciparum 3D7 infected in RBC assessed as parasite growth reduction incubated for 72 hrs by SybrGreen dye based analysis; format: functional, organism-based; details: 3D7, Erythrocyte
[4] = Cytotoxicity against African green monkey COS-7 cells incubated for 72 hrs by MTT assay; format: toxicity, cell-based; details: chlorocebus aethiops
[5] = Cytotoxicity against human HepG2 cells incubated for 72 hrs by MTT assay; format: toxicity, cell-based
Plasmodium falciparum [6] = experiment: Antiplasmodial activity against asexual blood-stage CQ-sensitive Plasmodium falciparum 3D7 infected in RBC assessed as parasite growth inhibition at 5 uM incubated for 72 hrs by SybrGreen dye based analysis relative to control; format: functional; details: 3D7, Erythrocyte
Plasmodium falciparum [7] = experiment: Antiplasmodial activity against asexual blood-stage multidrug-resistant Plasmodium falciparum Dd2 infected in RBC assessed as parasite growth inhibition at 5 uM incubated for 72 hrs by SybrGreen dye based analysis relative to control; format: functional; details: Dd2, Erythrocyte
Plasmodium berghei [8] = experiment: Antiplasmodial activity against asexual liver schizonts-stage Plasmodium berghei infected in human Huh-7 cells assessed as parasite growth inhibition at 10 uM pretreated parasite with compound for 1 hr followed by parasitic infection in cells for 46 hrs by bioluminescence assay relative to control; format: functional
Plasmodium falciparum [9] = experiment: Antiplasmodial activity against asexual blood-stage multidrug-resistant Plasmodium falciparum Dd2 infected in RBC assessed as parasite growth reduction incubated for 72 hrs by SybrGreen dye based analysis; format: functional, organism-based; details: Dd2, Erythrocyte
[10] = Selectivity index, ratio of CC50 for African green monkey COS-7 cells to EC50 for asexual blood-stage CQ-sensitive Plasmodium falciparum 3D7 infected in RBC; format: toxicity; details: read-out: Ratio CC50/EC50
[11] = Selectivity index, ratio of CC50 for human HepG2 cells to EC50 for asexual blood-stage chloroquine-sensitive Plasmodium falciparum 3D7 infected in RBC

In the case of Clc1ccc(-c2nc(Nc3ccc(I)cc3)c3ccccc3n2)cc1, the inhibition at 5 µM (Plasmodium falciparum [1]) is reported as 6%, the percent ookinete growth inhibition (ex vivo) at 10 µM (Plasmodium berghei [2]) is reported as 44.7% and the EC50 (Plasmodium falciparum [3]) is reported as > 10 µM. For the same compound, the CC50 at 72 h [4] was 51.5 µM and the CC50 at 72 h [5] was 34.8 µM.
With CN(C)CCCN(CCCN(C)C)Cc1cccc2ccccc12 the inhibition at 5 µM (Plasmodium falciparum [6]) was > 50%, the inhibition at 5 µM (Plasmodium falciparum [7]) was > 50% and the inhibition at 5 µM (Plasmodium falciparum [1]) was 33%. The percent ookinete growth inhibition (ex vivo) at 10 µM (Plasmodium berghei [2]) was 3.26%, the inhibition at 10 µM (Plasmodium berghei [8]) was 0% and the EC50 (Plasmodium falciparum [3]) was 5.46 µM. For the same compound, the EC50 (Plasmodium falciparum [9]) was 2.64 µM, the CC50 at 72 h [4] was > 100 µM and the CC50 at 72 h [5] was > 100 µM. For the same compound, the selectivity ratio [10] was > 18 and the selectivity ratio [11] was > 18.
For CCc1ccc(C2CC(=O)C3=C(C2)NC(C)=C(C(=O)OCCc2ccccc2)C3c2ccncc2)cc1 (configuration not stated), the inhibition at 5 µM (Plasmodium falciparum [1]) was 14%, the percent ookinete growth inhibition (ex vivo) at 10 µM (Plasmodium berghei [2]) was 11% and the inhibition at 10 µM (Plasmodium berghei [8]) was 92.2%. The EC50 (Plasmodium falciparum [3]) was 13.5 µM, the CC50 at 72 h [4] was 125 µM and the CC50 at 72 h [5] was 54.4 µM. The selectivity ratio [10] was 9 and the selectivity ratio [11] was 4.
With c1ccc(CCN2CCC(NC34CC5CC(CC(C5)C3)C4)CC2)cc1 the inhibition at 5 µM (Plasmodium falciparum [6]) was > 90%, the inhibition at 5 µM (Plasmodium falciparum [7]) was > 90% and the inhibition at 5 µM (Plasmodium falciparum [1]) was 86%. It also gave a percent ookinete growth inhibition (ex vivo) at 10 µM (Plasmodium berghei [2]) of 16%, an inhibition at 10 µM (Plasmodium berghei [8]) of 0% and an EC50 (Plasmodium falciparum [3]) of 1.78 µM. It also gave an EC50 (Plasmodium falciparum [9]) of 0.43 µM, a CC50 at 72 h [4] of 48.3 µM and a CC50 at 72 h [5] of 38.1 µM. For the same compound, the selectivity ratio [10] was 27 and the selectivity ratio [11] was 21.
In the case of COc1cc2nnc(NCC3(N(C)C)CCCCC3)nc2cc1OC, the inhibition at 5 µM (Plasmodium falciparum [6]) is reported as > 50%, the inhibition at 5 µM (Plasmodium falciparum [7]) is reported as > 50% and the inhibition at 5 µM (Plasmodium falciparum [1]) is reported as 94%. The percent ookinete growth inhibition (ex vivo) at 10 µM (Plasmodium berghei [2]) was 65.3%, the inhibition at 10 µM (Plasmodium berghei [8]) was 0% and the EC50 (Plasmodium falciparum [3]) was 0.65 µM. For the same compound, the EC50 (Plasmodium falciparum [9]) was 2.65 µM, the CC50 at 72 h [4] was 51 µM and the CC50 at 72 h [5] was 93.1 µM. It also gave a selectivity ratio [10] of 78 and a selectivity ratio [11] of 142.
For Oc1c(CN2CCCCC2)cc(CN2CCCCC2)nc1-c1ccccc1, the inhibition at 5 µM (Plasmodium falciparum [6]) was > 50%, the inhibition at 5 µM (Plasmodium falciparum [7]) was > 50% and the inhibition at 5 µM (Plasmodium falciparum [1]) was 51%. For the same compound, the percent ookinete growth inhibition (ex vivo) at 10 µM (Plasmodium berghei [2]) was 0%, the inhibition at 10 µM (Plasmodium berghei [8]) was 0% and the EC50 (Plasmodium falciparum [3]) was 1.55 µM. The EC50 (Plasmodium falciparum [9]) was 1.65 µM, the CC50 at 72 h [4] was > 100 µM and the CC50 at 72 h [5] was > 100 µM. For the same compound, the selectivity ratio [10] was > 64 and the selectivity ratio [11] was > 64.
With COc1cc2nc(NCCc3nc(=O)c4c(C)c(C)sc4[nH]3)nc(N)c2cc1OC the inhibition at 5 µM (Plasmodium falciparum [6]) was ≥ 50%, the inhibition at 5 µM (Plasmodium falciparum [7]) was ≥ 50% and the inhibition at 5 µM (Plasmodium falciparum [1]) was 94%. It also gave a percent ookinete growth inhibition (ex vivo) at 10 µM (Plasmodium berghei [2]) of 65%, an inhibition at 10 µM (Plasmodium berghei [8]) of 90.3% and an EC50 (Plasmodium falciparum [3]) of 1.38 µM. For the same compound, the EC50 (Plasmodium falciparum [9]) was 3.67 µM, the CC50 at 72 h [4] was 12.3 µM and the CC50 at 72 h [5] was 13.6 µM. It also gave a selectivity ratio [10] of 9 and a selectivity ratio [11] of 9.9.
With C=CCc1cc(CN2CCC3(CC2)CN(C)CCN3C)ccc1O the inhibition at 5 µM (Plasmodium falciparum [6]) was > 50%, the inhibition at 5 µM (Plasmodium falciparum [7]) was > 50% and the inhibition at 5 µM (Plasmodium falciparum [1]) was 51%. It also gave a percent ookinete growth inhibition (ex vivo) at 10 µM (Plasmodium berghei [2]) of 5.43%, an inhibition at 10 µM (Plasmodium berghei [8]) of 0% and an EC50 (Plasmodium falciparum [3]) of 1.49 µM. For the same compound, the EC50 (Plasmodium falciparum [9]) was 2.59 µM, the CC50 at 72 h [4] was > 100 µM and the CC50 at 72 h [5] was > 100 µM. For the same compound, the selectivity ratio [10] was > 67 and the selectivity ratio [11] was > 67.
In the case of c1ccc2c(CCNC34CC5CC(CC(C5)C3)C4)c[nH]c2c1, the inhibition at 5 µM (Plasmodium falciparum [1]) is reported as 12%, the inhibition at 10 µM (Plasmodium berghei [8]) is reported as 0% and the EC50 (Plasmodium falciparum [3]) is reported as 11.8 µM. It also gave a CC50 at 72 h [4] of 77.3 µM, a CC50 at 72 h [5] of 53.1 µM and a selectivity ratio [10] of 7. For the same compound, the selectivity ratio [11] was 4.5.
With c1ccc(C23CN4CCN(CC(C4)C2NCc2ccc4c(c2)OCCO4)C3)cc1 (configuration not stated) the inhibition at 5 µM (Plasmodium falciparum [1]) was 6%, the percent ookinete growth inhibition (ex vivo) at 10 µM (Plasmodium berghei [2]) was 0% and the inhibition at 10 µM (Plasmodium berghei [8]) was 0%. For the same compound, the EC50 (Plasmodium falciparum [3]) was > 10 µM, the CC50 at 72 h [4] was > 100 µM and the CC50 at 72 h [5] was > 100 µM.
In the case of COCCCNCCCCOc1ccc2ccccc2c1Br, the inhibition at 5 µM (Plasmodium falciparum [6]) is reported as ≥ 50%, the inhibition at 5 µM (Plasmodium falciparum [7]) is reported as ≥ 50% and the inhibition at 5 µM (Plasmodium falciparum [1]) is reported as 51.3%. For the same compound, the percent ookinete growth inhibition (ex vivo) at 10 µM (Plasmodium berghei [2]) was 66.1%, the inhibition at 10 µM (Plasmodium berghei [8]) was 49.4% and the EC50 (Plasmodium falciparum [3]) was 3.04 µM. It also gave an EC50 (Plasmodium falciparum [9]) of 1.12 µM, a CC50 at 72 h [4] of 11 µM and a CC50 at 72 h [5] of 10.4 µM. The selectivity ratio [10] was 2.7 and the selectivity ratio [11] was 3.4.
In the case of Cc1ccc(Nc2nc(-c3ccccc3Cl)nc3ccccc23)cc1, the inhibition at 5 µM (Plasmodium falciparum [1]) is reported as 1%, the percent ookinete growth inhibition (ex vivo) at 10 µM (Plasmodium berghei [2]) is reported as 45.6% and the EC50 (Plasmodium falciparum [3]) is reported as > 10 µM. For the same compound, the CC50 at 72 h [4] was 42.8 µM and the CC50 at 72 h [5] was 33.2 µM.
With c1ccc2c(CCNC3CC4CCC3C4)c[nH]c2c1 (configuration not stated) the inhibition at 5 µM (Plasmodium falciparum [1]) was 11.5%, the inhibition at 10 µM (Plasmodium berghei [8]) was 0% and the EC50 (Plasmodium falciparum [3]) was > 10 µM. The CC50 at 72 h [4] was > 100 µM and the CC50 at 72 h [5] was > 100 µM.
Compound COc1ccc(CN2CCCC(CO)(Cc3ccccc3)C2)c(C)c1C (configuration not stated) has an inhibition at 5 µM (Plasmodium falciparum [1]) of 13.5%, a percent ookinete growth inhibition (ex vivo) at 10 µM (Plasmodium berghei [2]) of 42.7% and an inhibition at 10 µM (Plasmodium berghei [8]) of 73.9%. The EC50 (Plasmodium falciparum [3]) was > 10 µM, the CC50 at 72 h [4] was 50.4 µM and the CC50 at 72 h [5] was 44.1 µM.
Compound CCCOc1c(Br)cc(C2C3=C(CCCC3=O)NC3=C2C(=O)CCC3)cc1OC has an inhibition at 5 µM (Plasmodium falciparum [1]) of 9.5%, a percent ookinete growth inhibition (ex vivo) at 10 µM (Plasmodium berghei [2]) of 56.8% and an inhibition at 10 µM (Plasmodium berghei [8]) of 6.96%. For the same compound, the EC50 (Plasmodium falciparum [3]) was > 10 µM, the CC50 at 72 h [4] was 56.4 µM and the CC50 at 72 h [5] was 30.5 µM.
Compound c1ccc(C23CN4CCN(CC(C4)C2NCc2nc4ccccc4[nH]2)C3)cc1 (configuration not stated) has an inhibition at 5 µM (Plasmodium falciparum [1]) of 20%, a percent ookinete growth inhibition (ex vivo) at 10 µM (Plasmodium berghei [2]) of 56% and an inhibition at 10 µM (Plasmodium berghei [8]) of 0%. For the same compound, the EC50 (Plasmodium falciparum [3]) was > 10 µM, the CC50 at 72 h [4] was > 100 µM and the CC50 at 72 h [5] was > 100 µM.
For C[C@H]1[C@H](OC(=O)CCC(=O)O)O[C@@H]2O[C@@]3(C)CC[C@H]4[C@H](C)CC[C@@H]1[C@@]24OO3 [ARTESUNATE], the EC50 (Plasmodium falciparum [3]) was 0.002 µM and the EC50 (Plasmodium falciparum [9]) was 0.002 µM.
Work on CCN(CC)CCCC(C)Nc1ccnc2cc(Cl)ccc12 (configuration not stated) [CHLOROQUINE] yielded an EC50 (Plasmodium falciparum [3]) of 0.008 µM and an EC50 (Plasmodium falciparum [9]) of 0.055 µM.
CCc1nc(N)nc(N)c1-c1ccc(Cl)cc1 [PYRIMETHAMINE] gave an EC50 (Plasmodium falciparum [3]) of 0.039 µM and an EC50 (Plasmodium falciparum [9]) of 6.01 µM.

Source: ChEMBL document CHEMBL5608229, “Innovative Multistage ML-QSAR Models for Malaria: From Data to Discovery” (ACS Med Chem Lett, 2024)
